Measured values taken from paper PMC12140300, “Development of Carbon‐11 Labeled Pyrimidine Derivatives as Novel Positron Emission Tomography (PET) Agents Enabling Brain Sigma‐1 Receptor Imaging” (Advanced Science, 2025).

Experiment: NHP plasma and metabolite analysis
Type: in vivo, rhesus macaque
Conditions: 30-minute mark
Text: Understanding the metabolism of [^11C]CNY‐01 is crucial for modeling its distribution kinetics and evaluating safety profiles. Figure 4B illustrates the presence of radiometabolites in arterial plasma following a bolus injection of [^11C]CNY‐01. […] This characteristic makes it well‐suited for kinetic modeling and reducing background signal interference.
During the PET/MR scanning, macaque arterial blood samples were collected synchronously. Metabolite extraction and analysis were based on published methods.^[ [54], [60] ^] Briefly, the blood samples were centrifuged to isolate plasma. Next, protein precipitation was achieved by mixing the plasma with acetonitrile (v/v = 1). The mixture was then centrifuged again to obtain protein‐free plasma. A 1 mL aliquot of the protein‐free supernatant was diluted in 4 mL of deionized water, and the radiometabolites were analyzed by HPLC. HPLC condition: Mobile Phase A: water + 0.1% formic acid; Mobile Phase B: acetonitrile + 0.1% formic acid; separation method = 95/5 – 50/50 A/B from 3–8 min linear gradient; 50/50–5/95 A/B from 8–10 min linear gradient; 5/95 A/B from 10–11 min isocratic; flow rate 2 mL min^−1.

For `Cc1nc(-c2ccc(O[11CH3])cc2)nc(OCCCN2CCCCC2)c1Cl` [[^11C]CNY-01], the “parent compound present in plasma” value was “over 30%”.
